According to the supplement of paper PMC4862054:

Legend:
Assay in all cases: normalised response (% of control), CellTiter-Glo; higher = more viable cells (100 = DMSO, 0 = benzethonium chloride kill control)
Conditions in all cases: incubation time: 72 h
BT-549 [1] = test system: BT-549
Procedure, shortened: (§1)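 After 72 h with compound in 384-well plates, breast cancer cell lines seeded as 20 µl suspension were read for CellTox Green fluorescence at 485/520 nm. CellTiter-Glo luminescence was then read after 10 min at room temperature. Compound was present at 5 concentrations in 10-fold steps over a 10,000-fold range set per compound, and plates were normalised to 0.1 % DMSO (100) and a positive kill control (0). Values are normalised signals, each at a single concentration.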

CAL-120 [2] = test system: CAL-120
Procedure, shortened: as §1

CAL-85-1 [3] = test system: CAL-85-1
Procedure, shortened: as §1

DU-4475 [4] = test system: DU-4475
Procedure, shortened: as §1

Hs578T [5] = test system: Hs578T
Procedure, shortened: as §1

MCF-10A [6] = test system: MCF-10A
Procedure, shortened: as §1

MDA-MB-436 [7] = test system: MDA-MB-436
Procedure, shortened: as §1

MDA-MB-453 [8] = test system: MDA-MB-453
Procedure, shortened: as §1

SK-BR-3 [9] = test system: SK-BR-3
Procedure, shortened: as §1

BT-474 = test system: BT-474
Procedure, shortened: as §1

BT-549 [10] = test system: BT-549; remark: listed apart in the source
Procedure, shortened: as §1

CAL-120 [11] = test system: CAL-120; remark: listed apart in the source
Procedure, shortened: as §1

CAL-148 = test system: CAL-148
Procedure, shortened: as §1

CAL-51 = test system: CAL-51
Procedure, shortened: as §1

CAL-85-1 [12] = test system: CAL-85-1; remark: listed apart in the source
Procedure, shortened: as §1

DU-4475 [13] = test system: DU-4475; remark: listed apart in the source
Procedure, shortened: as §1

HCC1143 = test system: HCC1143
Procedure, shortened: as §1

HCC1599 = test system: HCC1599
Procedure, shortened: as §1

HCC1937 = test system: HCC1937
Procedure, shortened: as §1

HDQ-P1 = test system: HDQ-P1
Procedure, shortened: as §1

Hs578T [14] = test system: Hs578T; remark: listed apart in the source
Procedure, shortened: as §1

MCF-10A [15] = test system: MCF-10A; remark: listed apart in the source
Procedure, shortened: as §1

MDA-MB-231 = test system: MDA-MB-231
Procedure, shortened: as §1

MDA-MB-436 [16] = test system: MDA-MB-436; remark: listed apart in the source
Procedure, shortened: as §1

MDA-MB-453 [17] = test system: MDA-MB-453; remark: listed apart in the source
Procedure, shortened: as §1

MDA-MB-468 = test system: MDA-MB-468
Procedure, shortened: as §1

MFM-223 = test system: MFM-223
Procedure, shortened: as §1

SK-BR-3 [18] = test system: SK-BR-3; remark: listed apart in the source
Procedure, shortened: as §1

Row | Compound | normalised response (BT-549 [1]) [%] | normalised response (CAL-120 [2]) [%] | normalised response (CAL-85-1 [3]) [%] | normalised response (DU-4475 [4]) [%] | normalised response (Hs578T [5]) [%] | normalised response (MCF-10A [6]) [%] | normalised response (MDA-MB-436 [7]) [%] | normalised response (MDA-MB-453 [8]) [%] | normalised response (SK-BR-3 [9]) [%] | normalised response (BT-474) [%] | normalised response (BT-549 [10]) [%] | normalised response (CAL-120 [11]) [%] | normalised response (CAL-148) [%] | normalised response (CAL-51) [%] | normalised response (CAL-85-1 [12]) [%] | normalised response (DU-4475 [13]) [%] | normalised response (HCC1143) [%] | normalised response (HCC1599) [%] | normalised response (HCC1937) [%] | normalised response (HDQ-P1) [%] | normalised response (Hs578T [14]) [%] | normalised response (MCF-10A [15]) [%] | normalised response (MDA-MB-231) [%] | normalised response (MDA-MB-436 [16]) [%] | normalised response (MDA-MB-453 [17]) [%] | normalised response (MDA-MB-468) [%] | normalised response (MFM-223) [%] | normalised response (SK-BR-3 [18]) [%]
1 | Cn1c(=O)c(F)c(Nc2ccc(I)cc2F)c2c(=O)n(C[C@@H](O)CO)cnc21 [TAK-733] (1000 nM) | 84 | 64.2 | 43.1 | 0.81 | 70.2 | 35.5 | 76.8 | 97.7 | 105 | – | – | – | – | – | – | – | – | – | – | – | – | – | – | – | – | – | – | –
2 | CS(=O)(=O)OCCCCOS(C)(=O)=O [Busulfan] (100000 nM) | 107 | 101 | 104 | 101 | 102 | 102 | 104 | 102 | 111 | – | – | – | – | – | – | – | – | – | – | – | – | – | – | – | – | – | – | –
3 | COc1c(C)cnc(Cn2cnc3c(Cl)nc(N)nc32)c1C [BIIB021] (10000 nM) | 38.2 | 45.4 | 18.6 | 0.28 | 33.7 | 13.4 | 41.7 | 27.5 | 34.3 | – | – | – | – | – | – | – | – | – | – | – | – | – | – | – | – | – | – | –
4 | O=c1[nH]c(=O)n([C@H]2C[C@H](O)[C@@H](CO)O2)cc1F [Floxuridine] (10000 nM) | 80.1 | 33.5 | 23.6 | 70.7 | 23 | 84.7 | 57.3 | 97.6 | 44.8 | – | – | – | – | – | – | – | – | – | – | – | – | – | – | – | – | – | – | –
5 | Cn1cnc2c(F)c(Nc3ccc(Br)cc3F)c(C(=O)NOCCO)cc21 [MEK-162] (1000 nM) | 92.7 | 86.6 | 78.8 | 1.31 | 90 | 38.9 | 94 | 97.9 | 94.5 | – | – | – | – | – | – | – | – | – | – | – | – | – | – | – | – | – | – | –
6 | CC(C)C[C@H](NC(=O)[C@H](Cc1ccccc1)NC(=O)c1cnccn1)B(O)O [Bortezomib] (1000 nM) | 2.23 | 7.39 | 0.44 | 6.46 | 0.04 | 3.63 | 1.47 | 11.5 | 1.8 | – | – | – | – | – | – | – | – | – | – | – | – | – | – | – | – | – | – | –
7 | COc1ncc(-c2ccc3nccc(-c4ccnnc4)c3c2)cc1NS(=O)(=O)c1ccc(F)cc1F (1000 nM) | 13.9 | 29.9 | 21 | 9.21 | 16.1 | 18.8 | 39.4 | 7.5 | 19.1 | – | – | – | – | – | – | – | – | – | – | – | – | – | – | – | – | – | – | –
8 | CS(=O)(=O)OCCCCOS(C)(=O)=O [Busulfan] (10000 nM) | – | – | – | – | – | – | – | – | – | 93.7 | 97.3 | 94.9 | 102 | 109 | 98.2 | 107 | 99.1 | 103 | 99.6 | 98.3 | 109 | 98.9 | 102 | 101 | 115 | 109 | 107 | 110
9 | CS(=O)(=O)CCNCc1ccc(-c2ccc3ncnc(Nc4ccc(OCc5cccc(F)c5)c(Cl)c4)c3c2)o1 [Lapatinib] (1000 nM) | 105 | 105 | 73.5 | 106 | 101 | 43.5 | 103 | 80.5 | 28.5 | – | – | – | – | – | – | – | – | – | – | – | – | – | – | – | – | – | – | –
10 | C[C@@]1(C(=O)Nc2ccc(F)nc2)CCCN1c1nc(Nc2cc(C3CC3)n[nH]2)c2cccn2n1 (10000 nM) | 12.7 | 13.4 | 38.9 | 31.4 | 44.7 | 7.53 | 40.6 | 127 | 57.4 | – | – | – | – | – | – | – | – | – | – | – | – | – | – | – | – | – | – | –
11 | COC1=CC(c2cc3ccccc3[nH]2)=N/C1=C\c1[nH]c(C)cc1C [Obatoclax] (1000 nM) | – | – | – | – | – | – | – | – | – | 65.4 | 77.3 | 94.2 | 81.5 | 99.5 | 76.6 | 89.7 | 87.4 | 97.1 | 63.4 | 97 | 91.7 | 92.8 | 64 | 89.7 | 96.3 | 83 | 93.7 | 87
